Reference: patent US20060135611A1, “Use of 2,5-dihydroxybenzenesulfonic compounds for the treatment of disorders based on an impairment of no production and/or of regulation of edhf function” (priority 2002, published 2006)

Key:
[1] = tested on: human penile resistance arteries (HPRA); experiment: Vascular reactivity of resistance penile arteries (myograph, norepinephrine-contracted)
Experimental: Penile small arteries, helicine arteries (lumen diameter 150-400 μm), which are the terminal branches of deep penile arteries, were dissected by carefully removing the adhering trabecular tissue, and arterial ring segments (of 2 mm length) were subsequently mounted on two 40 μm wires on microvascular double Halpern-Mulvany myographs (J.P. Trading, Aarhus, Denmark) for isometric tension recordings. The vascular segments were allowed to equilibrate for 30 min in physiological salt solution (PSS) of the following composition (each given in mM): 119 NaCl, 4.6 KCl; 1.5 CaCl2, 1.2 MgCl2, 24.9 NaHCO3, 11 Glucose, 1, 2 KH2PO4, 0.027 EDTA in water at 37° C., continuously bubbled with a 95% O2/5% CO2 mixture to maintain a pH of 7.4. Passive tension and internal circumference of the vascular segments when relaxed in situ under a transmural pressure of […] (L100) were determined. The vascular segments were then set to an internal circumference eqivalent to 90% of L100, at which the force development was close to maximal as described in Mulvany MJ, Halpern W., “Contractile properties of small resistance arteries in spontaneously hypertensive and normotensive rats”, Circ. Res., 41, 19-26, 1977. The respective literature description is incorporated by reference and is part of the disclosure.
The preparations were then exposed to 125 mM K^+(KPSS, equimolar substitution of […] in PSS) and the contractile response was measured. The arteries were contracted with 1 μm norepinephrine (approximately 80% of KPSS induced contraction) and relaxation responses were evaluated by cumulative additions of compounds to the chambers.
Relaxation responses are expressed as percentage of total relaxation (loss in tone) induced by the addition of 0.1 mM papaverine HCl to the chambers at the end of the experiment. All data are expressed as mean ± standard error. Complete concentration-response or frequency-response curves were obtained and compared by a two-factor analysis of variance (ANOVA) statistical test using StatView sotfware tor Apple computers. Erectile responses were determined by measuring the area under the curve (AUC) of the intracavemosal pressure increases to rat cavemosal nerve stimulation normalized by mean arterial pressure values. The complete frequency-response curves were compared by a two-factor ANOVA test.

[2] = tested on: Male genetically diabetic rats (BB/wor rats); experiment: Erectile responses to cavernosal nerve stimulation in anesthetized diabetic rats; type: in vivo, rat; conditions: 10 mg/kg intravenous; 60 min after administration; 1, 3 and 10 Hz
Experimental: Male genetically diabetic rats (BB/wor rats, Mölegaard Breeding and Research, Svensved, Denmark) were anesthetized with ketamine (60 mg/kg). The surgical procedure consisted of dissection and isolation of the right cavernous nerve through an abdominal midline incision and exposure of penile crura through a transverse perineal incision. Intracavemosal pressure (ICP) measurements were accomplished by insertion into the right crus of a 23-gauge needle connected to a disposable pressure transducer (Abbott, Sligo, Ireland) and a data acquisition system (ADInstruments, Castle Hill, Australia). Left carotid artery and right external jugular vein were catheterized for constant blood pressure measurement and saline or drug infusion, respectively. Electrical stimulation was applied by a delicate platinum bipolar hook electrode connected to a stimulator and current amplifier (Cibertec, Madrid, Spain). […]
Relaxation responses are expressed as percentage of total relaxation (loss in tone) induced by the addition of 0.1 mM papaverine HCl to the chambers at the end of the experiment. All data are expressed as mean ± standard error. […] Erectile responses were determined by measuring the area under the curve (AUC) of the intracavemosal pressure increases to rat cavemosal nerve stimulation normalized by mean arterial pressure values. […]

## O=S(=O)(O)c1cc(O)ccc1O [Calcium dobesilate, calcium 2,5-dihydroxybenzenesulfonate]
[1]; APA 100 nM + CTX 100 nM, NOS and COX inhibition
  potentiating effects on ACh-induced relaxation of HPRA with APA and CTX: abolished the potentiating effects
[1]; calcium dobesilate 10 μM
  effect on ACh-induced relaxation of HPRA: markedly potentiated
[1]; calcium dobesilate 10 μM, NOS and COX inhibition
  potentiation of ACh-induced relaxation of HPRA under combined inhibition of NOS and COX: not significantly affected
[1]; calcium dobesilate 10 μM, high potassium 35 mM
  potentiation of ACh-induced relaxation of HPRA at high potassium concentration: abolished
[1]; miconazole 0.3 mM
  potentiating effects on ACh-induced relaxation of HPRA resistant to NOS and COX inhibition, with miconazole: significantly reduced the potentiating effects
[2]
  erectile responses to cavernosal nerve stimulation (AUC of ICP increase normalized by mean arterial pressure): significantly enhanced
